Assay results published in US20100098641A1, “Monophosphates as Mutual Prodrugs of Anti-Inflammatory Signal Transduction Modulators (AISTM's) and Beta-Agonists for the Treatment of Pulmonary Inflammation and Bronchoconstriction” (priority 2006, published 2010).
Read-outs that look alike come from different tables or passages of the source.

Tests used:
alkaline phosphatase = alkaline phosphatase (Homo sapiens, UniProt P05187); test: Conversion of mutual prodrugs to salmeterol and AISTM drug after exposure to alkaline phosphatase in vitro (LCMS); assay type: in vitro ADME; settings: for Calculated Compound Final Conc. (μM) at 270 mins.: 270 mins in ALP; for half-life at 0.1 mg/mL / half-life at 111.7 μM: human, alkaline phosphatase (Sigma P-3895) in reaction buffer, read-out: Half Life t1/2; for Example 37 in ALP (Peak Area Ratio) Normalized / Example 37 in ALP (Peak Area Ratio) mean / Example 29 in ALP (Peak Area Ratio) Normalized / Example 29 in ALP (Peak Area Ratio) mean: 37 degrees; for half-life at 111.7 μM: Table 1b
Chain of alkaline phosphatase (P05187 23-506): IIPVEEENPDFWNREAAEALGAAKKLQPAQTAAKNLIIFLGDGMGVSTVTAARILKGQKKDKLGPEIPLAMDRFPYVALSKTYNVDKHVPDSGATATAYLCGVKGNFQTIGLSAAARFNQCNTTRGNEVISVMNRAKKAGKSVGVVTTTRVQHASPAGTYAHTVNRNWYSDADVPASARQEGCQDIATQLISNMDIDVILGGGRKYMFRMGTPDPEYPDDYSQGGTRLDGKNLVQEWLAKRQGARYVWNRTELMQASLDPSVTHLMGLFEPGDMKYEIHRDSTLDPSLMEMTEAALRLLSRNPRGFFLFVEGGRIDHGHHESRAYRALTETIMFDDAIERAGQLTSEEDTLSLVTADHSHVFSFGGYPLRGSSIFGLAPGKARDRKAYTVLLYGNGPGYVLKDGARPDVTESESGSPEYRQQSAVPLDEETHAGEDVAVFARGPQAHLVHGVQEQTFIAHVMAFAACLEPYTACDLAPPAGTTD
Method: Conversion of the Mutual AISTM-β-Agonist Prodrugs (Described in Examples 29 and 37) to Salmeterol and Respective AISTM Drugs after Exposure to Alkaline Phosphatase In Vitro
Reaction Buffer (pH 7.4, 5 mM tris/1 mM Mg^2+/1 mM Zn^2+) […]
Dissolved ˜2 mg of the mutual prodrug of invention in 10 ml 1:1 acetonitrile/water.
Dissolved ˜2 mg of each MRA and β-agonist in 20 ml 1:1 acetonitrile/water
The stock solutions were mixed in microcentrifuge tubes, as depicted in the following Table:
(§1) The heat block was set at the 37 degrees. Then 0.5 mL of alkaline phosphatase solution was added into 4 preheated Eppendorf tubes. The aliquot 0.5 of prodrug and drug standards were added into preheated Eppendorf tubes. Immediately after vortexing the aliquots of 25 μL of the all reaction solutions were made into the respective 96-well plate positions. The internal standard (75 μl of 500 ng/mL Glyburide) was added into all samples after each aliquots. That procedure was repeated at every 15 minute intervals for ˜4-5 hours.
The 96-well plates were then analyzed using the LCMS technique.
(§2) In the calculation of half life, we assumed that the disappearance of the mutual prodrug of this invention followed first order kinetics. Therefore,
(§3) The area peak ratio of prodrug vs IS was plotted against time first; the peak area ratios of later time points were normalized with the peak area ratio of initial time point (ASAP). The natural log of the normalized ratio was then plotted against time to generate a linear curve. The slope of this linear curve k was used for the following calculation.
Drug concentrations are calculated by normalizing the peak area ration to (t 0). Thus, calculated drug concentrations at any time point=normalized peak area ratio [t (0) mean/t mean]multiplied initial drug concentration. Data (normalized peak area ratio) for the calculations of drug concentrations are listed in Table 1a (ALP activation) and 1b (half-life in ALP and buffer only) for the compound prepared in Example 29, salmeterol, and the ARRY-797 compound (Munson et al., 2004) and Table 2a (ALP activation) and 2b (half-life in ALP and buffer only)) for the compound prepared in Example 37, salmeterol, and the PDE4 inhibitor, CDP-840 (Alexander et al., 2002).

[1] = Half life of mutual prodrug in reaction buffer only (pH 7.4 tris/Mg2+/Zn2+); assay type: physicochemical; settings: reaction buffer without alkaline phosphatase, reaction buffer pH 7.4, no ALP
Method: Reaction Buffer (pH 7.4, 5 mM tris/1 mM Mg^2+/1 mM Zn^2+)
as §1, §2, §3
Drug concentrations are calculated by normalizing the peak area ration to (t 0). Thus, calculated drug concentrations at any time point=normalized peak area ratio [t (0) mean/t mean]multiplied initial drug concentration. […]

## COc1ccc([C@H](Cc2cc[n+](Cc3ccc(C(O)CNCCCCCCOCCCCc4ccccc4)cc3OP(=O)(O)O)cc2)c2ccccc2)cc1OC1CCCC1 (stereo in doubt) [Example 37, 4-[2-(3-Cyclopentyloxy-4-methoxy-phenyl)-2-phenyl-ethyl]-1-(4-{1-hydroxy-2-[6-(4-phenyl-butoxy)-hexylamino]-ethyl}-2-phosphonooxy-benzyl)-pyridinium]
Alkaline phosphatase; ALP Enzyme Conc. 0.224 mg/mL, Table 2b, first order kinetics assumed
  Half Life t1/2: 0.925 h
Alkaline phosphatase; added initial conc. 117.4 μM in reaction mixture
  Calculated Compound Final Conc. (μM) at 270 mins.: 1.9 µM
Alkaline phosphatase; pH 7.4, ALP Enzyme Conc. 0.224 mg/mL, Table 2b, first order kinetics assumed
  half-life at 0.1 mg/mL: 0.775 h
Alkaline phosphatase; pH 7.4, ALP Enzyme Conc. 0.443 mg/mL, Table 2b, first order kinetics assumed
  half-life at 0.1 mg/mL: 0.41 h
Alkaline phosphatase; time 0 mins
  Example 37 in ALP (Peak Area Ratio) Normalized: 1.0000
  Example 37 in ALP (Peak Area Ratio) mean: 0.8115
Alkaline phosphatase; time 15.0 mins
  Example 37 in ALP (Peak Area Ratio) Normalized: 0.5126
  Example 37 in ALP (Peak Area Ratio) mean: 0.4160
Alkaline phosphatase; time 30.0 mins
  Example 37 in ALP (Peak Area Ratio) Normalized: 0.2705
  Example 37 in ALP (Peak Area Ratio) mean: 0.2195
Alkaline phosphatase; time 45.0 mins
  Example 37 in ALP (Peak Area Ratio) Normalized: 0.1719
  Example 37 in ALP (Peak Area Ratio) mean: 0.1395
Alkaline phosphatase; time 60.0 mins
  Example 37 in ALP (Peak Area Ratio) Normalized: 0.1280
  Example 37 in ALP (Peak Area Ratio) mean: 0.1039
Alkaline phosphatase; time 75.0 mins
  Example 37 in ALP (Peak Area Ratio) Normalized: 0.0974
  Example 37 in ALP (Peak Area Ratio) mean: 0.0791
Alkaline phosphatase; time 90.0 mins
  Example 37 in ALP (Peak Area Ratio) Normalized: 0.0752
  Example 37 in ALP (Peak Area Ratio) mean: 0.0610
Alkaline phosphatase; time 105 mins
  Example 37 in ALP (Peak Area Ratio) Normalized: 0.0630
  Example 37 in ALP (Peak Area Ratio) mean: 0.0511
Alkaline phosphatase; time 120 mins
  Example 37 in ALP (Peak Area Ratio) Normalized: 0.0478
  Example 37 in ALP (Peak Area Ratio) mean: 0.0388
Alkaline phosphatase; time 135 mins
  Example 37 in ALP (Peak Area Ratio) Normalized: 0.0439
  Example 37 in ALP (Peak Area Ratio) mean: 0.0357
Alkaline phosphatase; time 150 mins
  Example 37 in ALP (Peak Area Ratio) Normalized: 0.0322
  Example 37 in ALP (Peak Area Ratio) mean: 0.0262
Alkaline phosphatase; time 165 mins
  Example 37 in ALP (Peak Area Ratio) Normalized: 0.0296
  Example 37 in ALP (Peak Area Ratio) mean: 0.0240
Alkaline phosphatase; time 180 mins
  Example 37 in ALP (Peak Area Ratio) Normalized: 0.0275
  Example 37 in ALP (Peak Area Ratio) mean: 0.0224
Alkaline phosphatase; time 210 mins
  Example 37 in ALP (Peak Area Ratio) Normalized: 0.0227
  Example 37 in ALP (Peak Area Ratio) mean: 0.0184
Alkaline phosphatase; time 240 mins
  Example 37 in ALP (Peak Area Ratio) Normalized: 0.0198
  Example 37 in ALP (Peak Area Ratio) mean: 0.0161
Alkaline phosphatase; time 270 mins
  Example 37 in ALP (Peak Area Ratio) Normalized: 0.0161
  Example 37 in ALP (Peak Area Ratio) mean: 0.0131
[1]; Table 2b
  half-life: 6.42 h

## CC(C)Cn1ncc2cc(Oc3ccc(F)cc3F)c(C(=O)NCC[N+](C)(C)Cc3cc(C(O)CNCCCCCCOCCCCc4ccccc4)ccc3OP(=O)(O)O)cc21 (stereo not shown) [Example 29, (2-{[5-(2,4-Difluoro-phenoxy)-1-isobutyl-1H-indazole-6-carbonyl]-amino}-ethyl)-(5-{-hydroxy-2-[6-(4-phenyl-butoxy)-hexylamino]-ethyl}-2-phosphonooxy-benzyl)-dimethyl-ammonium]
Alkaline phosphatase; added initial conc. 111.7 μM in reaction mixture
  Calculated Compound Final Conc. (μM) at 270 mins.: 57.5 µM
Alkaline phosphatase; pH 7.4, ALP Enzyme Conc. 0.224 mg/mL, first order kinetics assumed
  half-life at 111.7 μM: 5.78 h
Alkaline phosphatase; pH 7.4, ALP Enzyme Conc. 0.443 mg/mL, first order kinetics assumed
  half-life at 111.7 μM: 2.36 h
Alkaline phosphatase; time 0 mins
  Example 29 in ALP (Peak Area Ratio) Normalized: 1.0000
  Example 29 in ALP (Peak Area Ratio) mean: 2.3900
Alkaline phosphatase; time 15.0 mins
  Example 29 in ALP (Peak Area Ratio) Normalized: 0.9289
  Example 29 in ALP (Peak Area Ratio) mean: 2.2200
Alkaline phosphatase; time 30.0 mins
  Example 29 in ALP (Peak Area Ratio) Normalized: 0.9247
  Example 29 in ALP (Peak Area Ratio) mean: 2.2100
Alkaline phosphatase; time 45.0 mins
  Example 29 in ALP (Peak Area Ratio) Normalized: 0.8368
  Example 29 in ALP (Peak Area Ratio) mean: 2.0000
Alkaline phosphatase; time 60.0 mins
  Example 29 in ALP (Peak Area Ratio) Normalized: 0.7552
  Example 29 in ALP (Peak Area Ratio) mean: 1.8050
Alkaline phosphatase; time 75.0 mins
  Example 29 in ALP (Peak Area Ratio) Normalized: 0.7050
  Example 29 in ALP (Peak Area Ratio) mean: 1.6850
Alkaline phosphatase; time 90.0 mins
  Example 29 in ALP (Peak Area Ratio) Normalized: 0.6402
  Example 29 in ALP (Peak Area Ratio) mean: 1.5300
Alkaline phosphatase; time 105 mins
  Example 29 in ALP (Peak Area Ratio) Normalized: 0.6109
  Example 29 in ALP (Peak Area Ratio) mean: 1.4600
Alkaline phosphatase; time 120 mins
  Example 29 in ALP (Peak Area Ratio) Normalized: 0.6402
  Example 29 in ALP (Peak Area Ratio) mean: 1.5300
Alkaline phosphatase; time 135 mins
  Example 29 in ALP (Peak Area Ratio) Normalized: 0.6192
  Example 29 in ALP (Peak Area Ratio) mean: 1.4800
Alkaline phosphatase; time 150 mins
  Example 29 in ALP (Peak Area Ratio) Normalized: 0.5941
  Example 29 in ALP (Peak Area Ratio) mean: 1.4200
Alkaline phosphatase; time 165 mins
  Example 29 in ALP (Peak Area Ratio) Normalized: 0.5879
  Example 29 in ALP (Peak Area Ratio) mean: 1.4050
Alkaline phosphatase; time 180 mins
  Example 29 in ALP (Peak Area Ratio) Normalized: 0.5439
  Example 29 in ALP (Peak Area Ratio) mean: 1.3000
Alkaline phosphatase; time 210 mins
  Example 29 in ALP (Peak Area Ratio) Normalized: 0.5146
  Example 29 in ALP (Peak Area Ratio) mean: 1.2300
Alkaline phosphatase; time 240 mins
  Example 29 in ALP (Peak Area Ratio) Normalized: 0.4916
  Example 29 in ALP (Peak Area Ratio) mean: 1.1750
Alkaline phosphatase; time 270 mins
  Example 29 in ALP (Peak Area Ratio) Normalized: 0.5146
  Example 29 in ALP (Peak Area Ratio) mean: 1.2300
[1]; Table 1b
  half-life: 57.8 h
